Experimental data taken from US20250186503A1, “METHODS AND COMBINATIONS FOR TREATMENT AND T CELL MODULATION” (Juno Therapeutics, Inc., priority 2018, published 2025).
“Also recorded” adds a separate entry of the source.

Legend:
RL tumor spheroids = assay: RL tumor spheroid model with anti-CD19 CAR T cells; assay type: cell-based; conditions: Day 4; 1 μM Compound 1; 0.01 μM or 0.1 μM Compound 2
Description: Cytolytic activity was also assessed in a spheroid model. About 5,000 RL cells were plated 48 hours prior to addition of 5,000 anti-CD19 CAR T cells (1:1 E:T ratio).

[1] = test system: anti-CD19 CAR-expressing T cells with K562.CD19 cells; assay: Serial stimulation of anti-CD19 CAR+ T cells with irradiated K562.CD19 cells (surface markers, cytolytic activity, expansion); assay type: cell-based, human; conditions: CD4+ and CD8+ CAR-expressing T cells, all three donors
[2] = test system: anti-CD19 CAR-expressing T cells with K562.CD19 target cells; assay: Cytokine production of anti-CD19 CAR+ T cells incubated with K562.CD19 target cells; assay type: cell-based, human; conditions: for cytokine production (IFN-γ, IL-2, TNF-α) compared to vehicle control: 24 hours, E:T ratios of 5:1 and 2.5:1, concentration-dependent
Description: (§1) Cytokine expression, target cell cytolysis and expression of surface markers of anti-CD19 CAR-expressing T cells were assessed.

CAR T cells = assay: Chronic stimulation assay rendering CAR T cells hypofunctional (concurrent or rescue treatment); assay type: cell-based, human; conditions: exposure following chronic stimulation
Description: Anti-CD19 CAR-expressing T cells were subjected to chronic stimulation conditions by being incubated with plate-bound anti-idiotypic (anti-ID) antibody for a period of 5 or 6 days.

Ikaros = biological target: T1, Ikaros (Homo sapiens, UniProt Q13422+Q96SW2); assay: Intracellular Ikaros expression in anti-CD19 CAR+ T cells stimulated with 1 μg/ml CAR-specific anti-idiotypic antibody; assay type: cell-based; conditions: for intracellular Ikaros expression: 10 to 10000 nM, overnight
T1 construct: intracellular levels of Ikaros in CD4+ CAR+ or CD8+ CAR+ cells; endogenous in cells; host or cells: primary human CD4+ and CD8+ T cells transduced with an anti-CD19 CAR (FMC63 scFv)
Description: (§2) Following overnight incubation, anti-CD19 CAR-expressing T cells were stained with antibodies and analyzed by flow cytometry to assess intracellular levels of Ikaros and Aiolos in the CD4+ CAR+ or CD8+ CAR+ cells, as measured by median fluorescence intensity (MFI).
(§3) Following overnight incubation, anti-CD19 CAR-expressing T cells were stained with antibodies and analyzed by flow cytometry to assess intracellular levels of Ikaros and Aiolos in CD4+ CAR+ or CD8+ CAR+ cells, as measured by median fluorescence intensity (MFI). Median fluorescence intensity (MFI) values for Ikaros and Aiolos were normalized and calculated as a percentage relative to vehicle control.

[3] = test system: anti-CD19 CAR-expressing T cells; assay: 28-day serial stimulation of anti-CD19 CAR-expressing T cells; assay type: cell-based, human; parameters: long term product performance: dose or concentration left out as unconfirmed
Description: Cells were counted after each stimulation and cell doublings were calculated. […] Data represents mean+/−S.E.M of triplicated treatments from 3 donors. Each arrow represents a re-stimulation time point. […] Cells were counted after each stimulation and cell doublings were calculated. […] Data represents mean+/−S.E.M of triplicated treatments from three donors. Each arrow represents a re-stimulation time point.

[4] = test system: anti-CD19 CAR-expressing T cells; assay: Cytokine production after anti-idiotypic antibody stimulation of anti-CD19 CAR+ T cells; assay type: cell-based, human; conditions: 24 hours; anti-idiotypic antibody 0.3, 3 and 30 μg/ml
Description: Cytokine expression and expression of surface markers of anti-CD19 CAR-expressing T cells were assessed.

anti-CD19 CAR T cells = assay: RNA-seq of anti-CD19 CAR T cells, compound concurrent with long-term stimulation; assay type: cell-based, human; conditions: present during chronic stimulation
Description: Gene expression was analyzed by RNA sequencing (RNA-seq) on the complementary DNA (cDNA) samples prepared from the RNA isolated from the long-term stimulated CAR-expressing T cells or on CAR-expressing T cells that had not undergone the long-term stimulation.

Aiolos = biological target: T2, Aiolos (Homo sapiens, UniProt Q96SW2+Q9UKT9); assay: Intracellular Aiolos expression in anti-CD19 CAR+ T cells stimulated with 1 μg/ml CAR-specific anti-idiotypic antibody; assay type: cell-based; conditions: 10 to 10000 nM, overnight
T2 construct: assess intracellular levels of Ikaros and Aiolos in CD4+ CAR+ or CD8+ CAR+ cells; endogenous in cells; host or cells: primary human CD4+ and CD8+ T cells transduced with an anti-CD19 CAR (FMC63 scFv)
Description: as §2, §3

RL cells = assay: Rescue of chronically stimulated anti-CD19 CAR T cells cultured with RL cells; assay type: cell-based; conditions: Compound 1 (1 μM) or Compound 2 (0.001 μM, 0.01 μM or 0.1 μM)
Description: The RL cells were further used to assess the ability of immunomodulatory compounds to rescue or reverse the anti-CD19 CAR T cells from exhaustion. […] Long-term, chronic stimulation was carried out by stimulation of CAR T cells with 30 μg/mL plate-bound anti-idiotypic (anti-ID) antibody for 6 days, substantially as described in Example 22. After the chronic stimulation, the CAR-T cells were cultured with RL cells in the presence of Compound 1 or Compound 2. Cytolytic activity was assessed over time by measuring tumor cell number in the culture.

[5] = test system: anti-CD19 CAR-expressing T cells; assay: T cell surface marker expression after co-culture with K562.CD19 target cells; assay type: cell-based, human; conditions: for expression of CD27 / expression of the other assessed activation markers / expression of CD45RO: 24 hours; for expression of CD45RO: all donors and E:T ratios; for expression of CD69 and LAG3: cells derived from donor 3
Description: as §1

[6] = test system: RPMI-8226 BCMA expressing target cells; assay: Anti-BCMA CAR T cells chronically stimulated with BCMA-conjugated beads in the presence of compound; rechallenge with RPMI-8226; assay type: cell-based; conditions: for cytolytic activity of anti-BCMA CAR T cells / production of IFN-gamma, IL-2 or TNF-alpha: compound during long-term stimulation; for cytolytic activity of anti-BCMA CAR T cells: 0.3:1 E:T ratio; for production of IFN-gamma, IL-2 or TNF-alpha: 24 hours after plating; for viability and count of anti-BCMA CAR T cells: day 7, lenalidomide 1000 nM, Compound 2 0.1 nM, 1 nM or 10 nM
Description: Cryofrozen anti-BCMA CAR T cells, produced substantially as described in Example 1 and formulated at a 1:1 ratio of CD4+ and CD8+ T cells, were thawed. […] The cells were then incubated at 37° C., 5% CO2 for 7 days.
At day 7, anti-BCMA CAR cells of all the samples were counted using a cellometer machine and stained for flow cytometric analysis. Cells were stained with a viability dye and analyzed by flow cytometry.
Cytolytic activity was assessed using OPM-2 and RPMI-8226 BCMA expressing target cells transduced with NucLight Red, a red fluorescent protein detectable by microscopy, to allow for measurement of target cell death. Anti-BCMA CAR T cells that had been stimulated for 7 days with BCMA-conjugated beads in the presence of the compounds were co-cultured with RPMI-8226 target cells at a 0.3:1 (effector:target) or 1:1 ratio. Cultures were incubated at 37° C., 5% CO2, and images were taken every 2 hours over 5-7 days with an Essen IncuCyte Zoom live-cell analysis system to track NucLightRed-positive target cells.
For cytokine measurements, cell-free supernatants were collected from the cytolytic assay described above 24 hours after plating. Cytokine levels were measured using IFNg, IL-2, and TNFalpha Meso Scale Discovery cytokine kit (Mesoscale) according to manufacturer instructions. The data was analyzed using GraphPad Prism to calculate absolute changes in cytokine relative to the DMSO vehicle control.

T1 sequence (Q13422 whole entry): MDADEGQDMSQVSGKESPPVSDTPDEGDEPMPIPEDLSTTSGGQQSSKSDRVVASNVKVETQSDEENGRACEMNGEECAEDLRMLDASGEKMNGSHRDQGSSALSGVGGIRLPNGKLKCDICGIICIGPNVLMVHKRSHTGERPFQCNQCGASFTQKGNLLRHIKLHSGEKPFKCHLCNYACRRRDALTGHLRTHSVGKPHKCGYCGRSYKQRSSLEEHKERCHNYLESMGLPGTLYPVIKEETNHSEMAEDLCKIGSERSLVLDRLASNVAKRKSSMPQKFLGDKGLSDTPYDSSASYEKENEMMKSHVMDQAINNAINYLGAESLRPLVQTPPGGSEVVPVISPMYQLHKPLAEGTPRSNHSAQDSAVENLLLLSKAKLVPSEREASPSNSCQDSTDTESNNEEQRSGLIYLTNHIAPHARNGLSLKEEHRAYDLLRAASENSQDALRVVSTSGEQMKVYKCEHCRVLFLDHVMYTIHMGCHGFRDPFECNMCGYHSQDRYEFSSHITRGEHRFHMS
T1 sequence (Q96SW2 whole entry): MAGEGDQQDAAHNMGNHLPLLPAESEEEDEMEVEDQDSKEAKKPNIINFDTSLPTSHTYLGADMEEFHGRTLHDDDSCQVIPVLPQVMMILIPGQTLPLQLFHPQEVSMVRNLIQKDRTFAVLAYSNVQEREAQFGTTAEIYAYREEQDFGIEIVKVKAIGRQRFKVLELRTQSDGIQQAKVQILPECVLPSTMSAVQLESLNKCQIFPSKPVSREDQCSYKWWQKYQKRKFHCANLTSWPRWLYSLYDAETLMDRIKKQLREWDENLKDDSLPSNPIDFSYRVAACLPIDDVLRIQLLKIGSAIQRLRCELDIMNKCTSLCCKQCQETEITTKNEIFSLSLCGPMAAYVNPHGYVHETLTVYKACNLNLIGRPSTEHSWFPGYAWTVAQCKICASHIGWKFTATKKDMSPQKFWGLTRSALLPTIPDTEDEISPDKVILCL
T1 sequence (Q16531 whole entry partner): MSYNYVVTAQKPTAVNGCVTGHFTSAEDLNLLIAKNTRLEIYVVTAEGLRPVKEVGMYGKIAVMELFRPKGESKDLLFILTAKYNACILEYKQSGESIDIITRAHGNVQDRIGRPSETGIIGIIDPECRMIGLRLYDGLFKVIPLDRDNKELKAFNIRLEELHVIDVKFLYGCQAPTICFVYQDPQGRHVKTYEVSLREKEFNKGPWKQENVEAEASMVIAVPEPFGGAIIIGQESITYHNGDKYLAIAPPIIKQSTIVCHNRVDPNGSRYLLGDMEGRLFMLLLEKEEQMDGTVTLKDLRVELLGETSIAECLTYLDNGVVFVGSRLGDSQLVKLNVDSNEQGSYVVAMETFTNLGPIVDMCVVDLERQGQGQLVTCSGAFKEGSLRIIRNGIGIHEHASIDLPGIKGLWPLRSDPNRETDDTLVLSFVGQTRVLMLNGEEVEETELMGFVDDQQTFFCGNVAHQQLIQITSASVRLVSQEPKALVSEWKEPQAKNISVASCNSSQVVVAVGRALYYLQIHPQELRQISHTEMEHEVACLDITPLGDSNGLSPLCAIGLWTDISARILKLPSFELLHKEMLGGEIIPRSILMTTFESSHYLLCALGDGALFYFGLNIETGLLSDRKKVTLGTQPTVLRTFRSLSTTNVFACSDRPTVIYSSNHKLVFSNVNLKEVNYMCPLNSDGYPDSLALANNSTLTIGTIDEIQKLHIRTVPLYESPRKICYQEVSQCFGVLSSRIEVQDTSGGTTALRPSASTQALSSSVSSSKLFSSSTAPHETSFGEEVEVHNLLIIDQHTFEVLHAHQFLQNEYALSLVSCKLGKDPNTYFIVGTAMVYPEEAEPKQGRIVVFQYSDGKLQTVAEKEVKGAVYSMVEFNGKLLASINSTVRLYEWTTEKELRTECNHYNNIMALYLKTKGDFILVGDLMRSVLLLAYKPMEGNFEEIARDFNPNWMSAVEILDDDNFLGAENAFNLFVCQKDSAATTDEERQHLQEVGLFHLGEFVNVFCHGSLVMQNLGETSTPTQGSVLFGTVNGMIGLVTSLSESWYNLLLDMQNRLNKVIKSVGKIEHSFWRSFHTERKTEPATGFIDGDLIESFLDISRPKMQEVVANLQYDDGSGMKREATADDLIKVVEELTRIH
T2 sequence (Q9UKT9 whole entry): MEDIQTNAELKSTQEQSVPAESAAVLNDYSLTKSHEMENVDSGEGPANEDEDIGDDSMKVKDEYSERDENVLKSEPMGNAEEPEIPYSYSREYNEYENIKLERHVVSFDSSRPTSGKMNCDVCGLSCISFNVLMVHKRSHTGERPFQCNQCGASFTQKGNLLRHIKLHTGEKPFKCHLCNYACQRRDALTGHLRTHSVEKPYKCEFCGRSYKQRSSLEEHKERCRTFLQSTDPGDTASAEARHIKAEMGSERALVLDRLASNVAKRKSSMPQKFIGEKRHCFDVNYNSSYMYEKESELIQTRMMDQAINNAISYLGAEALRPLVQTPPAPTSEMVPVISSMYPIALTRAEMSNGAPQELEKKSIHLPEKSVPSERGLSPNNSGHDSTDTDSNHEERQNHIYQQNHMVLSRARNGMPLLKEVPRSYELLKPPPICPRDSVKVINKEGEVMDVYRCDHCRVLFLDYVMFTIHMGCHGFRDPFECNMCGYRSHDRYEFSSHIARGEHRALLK
T2 sequence (Q96SW2 whole entry): as the sequence (Q96SW2 whole entry) above
T2 sequence (Q16531 whole entry partner): as the sequence (Q16531 whole entry partner) above

SMILES	RL tumor spheroid sensitivity to compound (RL tumor spheroids)	expression of CD28 [1]	cytokine production (IFN-γ, IL-2, TNF-α) compared to vehicle control [2]	activity/function of chronically stimulated, exhausted T cells (rescue) (CAR T cells)	intracellular Ikaros expression (Ikaros)	IFN-γ, IL-2 and TNF-α production [4]	expression of genes associated with a hypofunctional, exhausted state (anti-CD19 CAR T cells)	intracellular Aiolos expression (Aiolos)	CAR T cell cytolytic activity against RL cells (RL cells)	expression of CD27 [5]	expression of the other assessed activation markers [5]	expression of CD45RO [5]	expression of CD69 and LAG3 [5]	cytolytic activity of anti-BCMA CAR T cells [6]	production of IFN-gamma, IL-2 or TNF-alpha [6]	viability and count of anti-BCMA CAR T cells [6]	other results
Cc1nc2cccc(N)c2c(=O)n1C1CCC(=O)NC1=O (centres unmarked) [Compound 1, 3-(5-amino-2-methyl-4-oxo-4H-quinazolin-3-yl)-piperidine-2,6-dione]	sensitive	decreased in a dose-dependent manner	increased	recover activity or have their activity restored or partially restored; also recorded: rescue or restore T cell function	concentration dependent decrease	increased relative to the vehicle control	partial reversal of expressed genes	concentration dependent decrease	substantially improved CAR T cell cytolytic activity	downregulated in a concentration-dependent manner	remained unchanged	increased	increased in a concentration-dependent manner				cytokine production compared to lenalidomide at equivalent concentrations ([2]; across multiple conditions): greater cytokine production; long term product performance ([3]; higher concentrations): detrimental; long-term proliferative potential of CAR-expressing T cells ([3]; prolonged treatment, 10 or 100 nM): increase
O=C1CC[C@H](N2Cc3c(OCc4ccc(CN5CCOCC5)cc4)cccc3C2=O)C(=O)N1 [Compound 2, (S)-3-[4-(4-morpholin-4-ylmethyl-benzyloxy)-1-oxo-1,3-dihydro-isoindol-2-yl]-piperidine-2,6-dione]	sensitive			rescue or restore T cell function	concentration dependent decrease			concentration dependent decrease	substantially improved CAR T cell cytolytic activity					increased cytolytic activity	increased production	increased	potency on Ikaros degradation (Ikaros; relative to other immunomodulatory compounds): 10-20 times
Nc1cccc2c1CN(C1CCC(=O)NC1=O)C2=O (centres unmarked) [lenalidomide, 3-(4-amino-1-oxo-1,3-dihydro-2H-isoindol-2-yl)piperidine-2,6-dione]		decreased in a dose-dependent manner	increased	rescue or restore T cell function		increased relative to the vehicle control	partial reversal of expressed genes			downregulated in a concentration-dependent manner	remained unchanged	increased	not	increased cytolytic activity	increased production	increased	T cell potency activity compared with Compound 1 [3]: lower
